One may read the IC50 as the concentration needed to halve the response being measured.

The source of these data is patent US11718631B2, “Sulphonamides and compositions thereof for treating conditions associated with NLRP activity” (Novartis AG, priority 2017, dated 2023).

The target in the first test is T1, NLRP3 (Homo sapiens, UniProt Q96P20).
T1 construct: IL-1β Production in PMA-Differentiated THP-1 Cells Stimulated with Gramicidin; host or cells: THP-1 cells, PMA-differentiated
T1 sequence (Q96P20 whole entry): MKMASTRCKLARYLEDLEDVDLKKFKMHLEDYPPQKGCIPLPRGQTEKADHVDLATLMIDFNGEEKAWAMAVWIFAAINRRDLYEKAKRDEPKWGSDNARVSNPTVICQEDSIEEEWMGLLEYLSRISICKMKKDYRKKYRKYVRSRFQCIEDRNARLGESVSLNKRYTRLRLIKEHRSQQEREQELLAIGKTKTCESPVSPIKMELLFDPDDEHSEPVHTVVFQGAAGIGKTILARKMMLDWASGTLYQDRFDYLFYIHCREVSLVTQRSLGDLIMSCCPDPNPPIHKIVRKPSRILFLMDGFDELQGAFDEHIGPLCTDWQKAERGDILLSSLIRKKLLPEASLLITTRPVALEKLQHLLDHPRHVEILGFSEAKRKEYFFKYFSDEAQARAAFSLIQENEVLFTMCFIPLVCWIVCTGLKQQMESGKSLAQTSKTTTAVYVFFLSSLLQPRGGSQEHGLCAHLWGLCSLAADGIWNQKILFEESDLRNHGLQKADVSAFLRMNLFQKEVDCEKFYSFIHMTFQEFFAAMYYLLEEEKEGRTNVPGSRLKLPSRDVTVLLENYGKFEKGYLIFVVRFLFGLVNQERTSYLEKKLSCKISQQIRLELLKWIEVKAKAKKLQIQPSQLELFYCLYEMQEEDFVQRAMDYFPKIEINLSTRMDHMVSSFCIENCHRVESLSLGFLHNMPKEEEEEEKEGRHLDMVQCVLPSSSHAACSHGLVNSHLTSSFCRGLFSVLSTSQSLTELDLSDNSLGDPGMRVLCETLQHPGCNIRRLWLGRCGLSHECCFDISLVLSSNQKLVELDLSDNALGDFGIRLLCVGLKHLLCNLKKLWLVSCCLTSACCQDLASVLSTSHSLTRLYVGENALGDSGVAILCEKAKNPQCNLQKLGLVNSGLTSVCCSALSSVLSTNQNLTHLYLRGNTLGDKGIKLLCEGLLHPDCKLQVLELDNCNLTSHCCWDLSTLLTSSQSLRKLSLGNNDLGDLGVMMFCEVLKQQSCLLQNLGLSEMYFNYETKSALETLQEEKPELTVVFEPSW
Put plainly: IL-1β production in PMA-differentiated THP-1 cells stimulated with gramicidin (hTHP-1 assay). Type of test: cell-based. The conditions noted are these: hTHP-1 assay containing 2% fetal bovine serum; average IC50, class symbols; read-out: NLRP3 Antagonist, human THP1 NLRP3, IL-1b, Normalized: GeoMean IC50. As to the method:
IL-1β Production in PMA-Differentiated THP-1 Cells Stimulated with Gramicidin.
THP-1 cells were purchased from the American Type Culture Collection and sub-cultured according to instructions from the supplier. […] Prior to the experiment THP-1 were treated with PMA (Phorbol 12-myristate 13-acetate) (20 ng/ml) for 16-18 hours. On the day of the experiment the media was removed and adherent cells were detached with trypsin for 5 minutes. […] A vehicle only control was run concurrently with each experiment. Final DMSO concentration was 0.38%.
THP-1 cells were purchased from the American Type Culture Collection and sub-cultured according to instructions from the supplier. […] Prior to the experiment THP-1 were treated with PMA (Phorbol 12-myristate 13-acetate) (20 ng/ml) for 16-18 hours. Compounds were dissolved in dimethyl sulfoxide (DMSO) to generate a 30 mM stock. On the day of the experiment the media was removed and adherent cells were detached with trypsin for 5 minutes. […] Final DMSO concentration was at 0.37%. Cells were incubated with compounds for 1 hour and then stimulated with gramicidin (5 μM) (Enzo) for 2 hours. Plates were then centrifuged at 340 g for 5 min. Cell free supernatant (40 μL) was collected using a 96-channel PlateMaster (Gilson) and the production of IL-1p was evaluated by HTRF (cisbio).
IL-1p Production in PMA-Differentiated THP-1 Cells Stimulated with Gramicidin.
THP-1 cells were purchased from the American Type Culture Collection and sub-cultured according to instructions from the supplier. […] Prior to the experiment, compounds were dissolved in dimethyl sulfoxide (DMSO) to generate a 30 mM stock. […] DMSO was backfilled in the plate to achieve a final DMSO assay concentration of 0.37%. The plate was then sealed and stored at room temperature until required.
THP-1 cells were treated with PMA (Phorbol 12-myristate 13-acetate) (20 ng/ml) for 16-18 hours. On the day of the experiment the media was removed and adherent cells were detached with trypsin for 5 minutes. […] The plates were incubated for 18 h at 4° C. and read using the preset HTRF program (donor emission at 620 nm, acceptor emission at 668 nm) of the SpectraMax i3x spectrophotometer (Molecular Devices, software SoftMax 6).
For `Cc1cc(-c2cc(C(C)C)c(CC(=O)NS(=O)(=O)c3ccc(CN(C)C)cc3)c(C(C)C)c2)ccc1F` [Compound 101], the IC50 was in the range of 0.2 to 1 µM.
On the same count and under the same terms, with `CC(C)c1cc(-c2ccccc2OCc2ccccc2)cc(C(C)C)c1CC(=O)NS(=O)(=O)c1ccc(CN(C)C)cc1` [Compound 102, N-[4-[(dimethylamino)methyl]phenyl] sulfonyl-2-[4-(2-phenylmethoxy-phenyl)-2,6-di(propan-2-yl)phenyl]acetamide] the figure was 5 to 30 µM.
Same read-out and setting: with `CC(C)c1cc(C2=CCCC2)cc(C(C)C)c1CC(=O)NS(=O)(=O)c1ccc(CN(C)C)cc1` [Compound 107, 2-[4-(cyclopenten-1-yl)-2,6-di(propan-2-yl)phenyl]-N-[4-[(dimethylamino)methyl]phenyl] sulfonylacetamide] the figure was 1 to 5 µM.
Still for that read-out and setting: in the case of `CC(C)c1cc(-c2cccc(Cl)c2)cc(C(C)C)c1CC(=O)NS(=O)(=O)c1ccc(CN(C)C)cc1` [Compound 108, 2-[4-(3-chlorophenyl)-2,6-di(propan-2-yl)phenyl]-N-[4-[(dimethylamino)methyl]phenyl] sulfonylacetamide] it was 0.2 to 1 µM; in that of `Cc1ccc(-c2cc(C(C)C)c(CC(=O)NS(=O)(=O)c3ccc(CN(C)C)cc3)c(C(C)C)c2)cc1` [Compound 110, N-[4-[(dimethylamino)methyl]phenyl] sulfonyl-2-[4-(4-methylphenyl)-2,6-di(propan-2-yl)phenyl] acetamide], 1 to 5 µM; in that of `Cc1ccc(-c2cc(C(C)C)c(CC(=O)NS(=O)(=O)c3ccc(CN(C)C)cc3)c(C(C)C)c2)cc1F` [Compound 111, N-[4-[(dimethylamino)methyl]phenyl] sulfonyl-2-[4-(3-fluoro-4-methylphenyl)-2,6-di(propan-2-yl)phenyl]acetamide], 1 to 5 µM.
In the case of `CC(C)c1cc(-c2ccc(F)c(Cl)c2)cc(C(C)C)c1CC(=O)NS(=O)(=O)c1ccc(CN(C)C)cc1` [Compound 112, 2-[4-(3-chloro-4-fluorophenyl)-2,6-di(propan-2-yl)phenyl]-N-[4-[(dimethylamino)methyl]phenyl] sulfonylacetamide], the IC50 was in the range of 0.2 to 1 µM.
Still for that read-out and setting: with `CC(C)c1cc(-c2ccc3c(c2)OC(F)(F)O3)cc(C(C)C)c1CC(=O)NS(=O)(=O)c1ccc(CN(C)C)cc1` [Compound 113, 2-[4-(2,2-difluoro-1,3-benzodioxol-5-yl)-2,6-di(propan-2-yl)phenyl]-N-[4-[(dimethylamino)methyl]phenyl] sulfonylacetamide] the figure was 0.2 to 1 µM; with `CC(C)c1cc(-c2cccc3cccnc23)cc(C(C)C)c1CC(=O)NS(=O)(=O)c1ccc(CN(C)C)cc1` [Compound 114], 1 to 5 µM; with `CC(C)c1cc(-c2ccc3c(ccn3C(=O)OC(C)(C)C)c2)cc(C(C)C)c1CC(=O)NS(=O)(=O)c1ccc(CN(C)C)cc1` [Compound 115, tert-butyl 5-[4-[2-[[4-[(dimethylamino)methyl]phenyl]sulfonylamino]-2-oxoethyl]-3,5-di(propan-2-yl)phenyl]indole-1-carboxylate], 5 to 30 µM.
The same measure, in the same setting: with `CC(C)c1cc(-c2ccc(Cl)cc2)cc(C(C)C)c1CC(=O)NS(=O)(=O)c1ccc(CN(C)C)cc1` [Compound 116, 2-[4-(4-chlorophenyl)-2,6-di(propan-2-yl)phenyl]-N-[4-[(dimethylamino)methyl]phenyl] sulfonylacetamide] the figure was 1 to 5 µM; with `Cc1ccc(-c2cc(C(C)C)c(CC(=O)NS(=O)(=O)c3ccc(CN(C)C)cc3)c(C(C)C)c2)cc1Cl` [Compound 117, 2-[4-(3-chloro-4-methylphenyl)-2,6-di(propan-2-yl)phenyl]-N-[4-[(dimethylamino)methyl]phenyl] sulfonylacetamide], 0.2 to 1 µM; with `Cc1ccc(-c2cc(C(C)C)c(CC(=O)NS(=O)(=O)c3ccc(CN(C)C)cc3)c(C(C)C)c2)cc1C` [Compound 118, N-[4-[(dimethylamino)methyl]phenyl] sulfonyl-2-[4-(3,4-dimethylphenyl)-2,6-di(propan-2-yl)phenyl]acetamide], 0.2 to 1 µM.
The same measure, in the same setting: with `CC(C)c1cc(-c2ccc(Cl)c(Cl)c2)cc(C(C)C)c1CC(=O)NS(=O)(=O)c1ccc(CN(C)C)cc1` [Compound 119, 2-[4-(3,4-dichlorophenyl)-2,6-di(propan-2-yl)phenyl]-N-[4-[(dimethylamino)methyl]phenyl] sulfonylacetamide] the figure was 0.2 to 1 µM; with `CC(C)c1cc(-c2ccc(Cl)c(F)c2)cc(C(C)C)c1CC(=O)NS(=O)(=O)c1ccc(CN(C)C)cc1` [Compound 120, 2-[4-(4-chloro-3-fluorophenyl)-2,6-di(propan-2-yl)phenyl]-N-[4-[(dimethylamino)methyl]phenyl] sulfonylacetamide], 1 to 5 µM.
Consider `COc1ccccc1-c1cc(C(C)C)c(CC(=O)NS(=O)(=O)c2ccc(CN(C)C)cc2)c(C(C)C)c1` [Compound 121, N-[4-[(dimethylamino)methyl]phenyl] sulfonyl-2-[4-(2-methoxyphenyl)-2,6-di(propan-2-yl)phenyl] acetamide], for which the IC50 lay within 1 to 5 µM.
Same read-out and setting: in the case of `CC(C)c1cc(-c2ccccc2CO)cc(C(C)C)c1CC(=O)NS(=O)(=O)c1ccc(CN(C)C)cc1` [Compound 124, N-[4-[(dimethylamino)methyl]phenyl] sulfonyl-2-[4-[2-(hydroxymethyl)phenyl]-2,6-di(propan-2-yl)phenyl]acetamide] it was 5 to 30 µM; in that of `CC(C)c1cc(-c2ccccc2S(C)(=O)=O)cc(C(C)C)c1CC(=O)NS(=O)(=O)c1ccc(CN(C)C)cc1` [Compound 125, N-[4-[(dimethylamino)methyl]phenyl] sulfonyl-2-[4-(2-methylsulfonyl-phenyl)-2,6-di(propan-2-yl)phenyl]acetamide], 5 to 30 µM; in that of `CC(C)c1cc(-c2ccc3ccccc3c2)cc(C(C)C)c1CC(=O)NS(=O)(=O)c1ccc(CN(C)C)cc1` [Compound 139, N-[4-[(dimethylamino)methyl]phenyl] sulfonyl-2-[4-naphthalen-2-yl-2,6-di(propan-2-yl)phenyl] acetamide], 0.04 to 0.2 µM.
The same measure, in the same setting: with `C/C=C(\C)c1cc(C(C)C)c(CC(=O)NS(=O)(=O)c2ccc(CN(C)C)cc2)c(C(C)C)c1` [Compound 145] the figure was 1 to 5 µM.
As to `Cc1cc(-c2cc(C(C)C)c(CC(=O)NS(=O)(=O)c3ccc(CN(C)C)cc3)c(C(C)C)c2)ccc1Cl` [Compound 146], the IC50 lay in the range of 0.2 to 1 µM.
In the case of `C=C(C)c1cc(C(C)C)c(CC(=O)NS(=O)(=O)c2ccc(CN(C)C)cc2)c(C(C)C)c1` [Compound 147], the half-inhibitory concentration (IC50) lay within 1 to 5 µM.
The same measure, in the same setting: in the case of `CC(C)c1cc(Br)cc(C(C)C)c1CC(=O)NS(=O)(=O)c1ccc(CN(C)C)cc1` [Compound 148] it was 1 to 5 µM; in that of `CC(C)c1cc(Cl)cc(C(C)C)c1CC(=O)NS(=O)(=O)c1ccc(CN(C)C)cc1` [Compound 149], 1 to 5 µM; in that of `CC(C)c1cc(C#CC2CCOCC2)cc(C(C)C)c1CC(=O)NS(=O)(=O)c1ccc(CN(C)C)cc1` [Compound 313, N-{4-[(dimethylamino)methyl]benzene-sulfonyl}-2-{4-[2-(oxan-4-yl)ethynyl]-2,6-bis(propan-2-yl)phenyl}acetamide], 1 to 5 µM.
The same measure, in the same setting: with `CC(C)c1cc(C2CCc3ccccc3C2)cc(C(C)C)c1CC(=O)NS(=O)(=O)c1ccc(CN(C)C)cc1` (centres unmarked) [Compound 314, 2-[2,6-bis(propan-2-yl)-4-(1,2,3,4-tetrahydronaphthalen-2-yl)phenyl]-N-{4-[(dimethylamino)methyl]benzene-sulfonyl}acetamide] the figure was 1 to 5 µM.

Staying with this test, now noted: hTHP-1 assay containing 2% fetal bovine serum; average IC50, given as numeric bound; read-out: NLRP3 Antagonist, human THP1 NLRP3, IL-1b, Normalized: GeoMean IC50.
Regarding `CC(C)c1cc(-c2cnn(C)c2)cc(C(C)C)c1CC(=O)NS(=O)(=O)c1ccc(CN(C)C)cc1` [Compound 106, N-[4-[(dimethylamino)methyl]phenyl] sulfonyl-2-[4-(1-methylpyrazol-4-yl)-2,6-di(propan-2-yl)phenyl] acetamide], the IC50 was over 30 µM.
On the same count and under the same terms, in the case of `CC(C)c1cc(C2=CCCN(C(=O)OC(C)(C)C)C2)cc(C(C)C)c1CC(=O)NS(=O)(=O)c1ccc(CN(C)C)cc1` [Compound 122, tert-butyl 5-[4-[2-[[4-[(dimethylamino)methyl]phenyl]sulfonylamino]-2-oxoethyl]-3,5-di(propan-2-yl)phenyl]-3,6-dihydro-2H-pyridine-1-carboxylate] it was over 30 µM; in that of `CC(C)c1cc(C2CCOC2)cc(C(C)C)c1CC(=O)NS(=O)(=O)c1ccc(CN(C)C)cc1` (centres unmarked) [Compound 315, N-{4-[(dimethylamino)methyl]benzene-sulfonyl}-2-[4-(oxolan-3-yl)-2,6-bis(propan-2-yl)phenyl]acetamide], over 30 µM.
